Test results as given in ChEMBL document CHEMBL5346906, “Discovery of novel tranylcypromine-based derivatives as LSD1 inhibitors for gastric cancer treatment” (Eur J Med Chem, 2023).
Active and inactive are the calls of the source. No cut-off for these calls is given here.

Key:
[1] = tested on: MGC-803; experiment: Induction of apoptosis in human MGC-803 cells assessed as necrotic cells at 8 micromol/L for 48 hrs by annexinV-FITC/PI staining based flow cytometric analysis (reference value: 0.22%); type: functional; conditions: dose 8 µmol/L, at 8 µM
[2] = molecular target: T1, Lysine-specific histone demethylase 1A (Homo sapiens, UniProt O60341); experiment: Inhibition of LSD1 in human MGC-803 cells assessed as increase in mono methylation of H3K4; type: cell-based; conditions: dose 0-24 µmol/L
[3] = molecular target: T1, Lysine-specific histone demethylase 1A; experiment: Inhibition of LSD1 in human MGC-803 cells assessed as increase in methylation of H3K9 at 24 micromol/L; type: cell-based; conditions: dose 24.0 µmol/L
[4] = tested on: MGC-803; experiment: Induction of apoptosis in human MGC-803 cells assessed as necrotic cells at 24 micromol/L for 48 hrs by annexinV-FITC/PI staining based flow cytometric analysis (reference value: 0.22%); type: functional; conditions: dose 24 µmol/L, at 24 µM
[5] = tested on: MGC-803; experiment: Induction of mitochondrial membrane potential depolarization in human MGC-803 assessed as viable cells measured at 24 micromol/L for 20 mins by JC-1 staining based flow cytometric analysis (reference value: 0.40%); type: functional; conditions: MGC-803, 20 min, dose 24 µmol/L, read-out: Activity
[6] = tested on: MGC-803; experiment: Antiproliferative activity against human MGC-803 cells incubated for 48 hrs measured by MTT assay; type: functional, cell-based; conditions: MGC-803, 48 h
[7] = tested on: MGC-803; experiment: Induction of apoptosis in human MGC-803 cells assessed as morphological change in cell nucleus incubated at 8 to 24 micromol/L for 48 hrs measured by DAPI staining analysis; type: functional, cell-based; conditions: dose 8-24 µmol/L
[8] = tested on: MGC-803; experiment: Induction of apoptosis in human MGC-803 cells assessed as morphological change of cells incubated at 8 to 24 micromol/L for 48 hrs measured by bright field microscopic analysis; type: functional, cell-based; conditions: dose 8-24 µmol/L
[9] = tested on: MGC-803; experiment: Induction of apoptosis in human MGC-803 cells assessed as morphological change in cell nucleus incubated at 8 to 24 micromol/L for 48 hrs measured by Giemsa staining based microscopic analysis; type: functional; conditions: dose 8-24 µmol/L
[10] = tested on: MGC-803; experiment: Induction of mitochondrial membrane potential depolarization in human MGC-803 assessed as late apoptotic cells measured at 24 micromol/L for 20 mins by JC-1 staining based flow cytometric analysis (reference value: 94.98%); type: functional; conditions: dose 24 µmol/L, at 24 µM
[11] = tested on: MGC-803; experiment: Inhibition of cell migration in human MGC-803 cells assessed as scratch width decrease treated at 2 to 6 micromol/L for 24 to 48 hrs measured by wound healing assay; type: functional, cell-based; conditions: dose 2-6 µmol/L, time 24-48 hrs
[12] = molecular target: T1, Lysine-specific histone demethylase 1A; experiment: Binding affinity to LSD1 in human MGC-803 cells assessed as thermal solubility measured at 100 uM preincubated for 30 mins and incubated at 42 to 60 degreeC for 3 mins followed by cooled for 180 secs cycle repeated 3 times by CETSA based Western blotting analysis; type: cell-based; conditions: time 48.0 min
[13] = tested on: MGC-803; experiment: Induction of apoptosis in human MGC-803 cells assessed as early apoptotic cells at 8 micromol/L for 48 hrs by annexinV-FITC/PI staining based flow cytometric analysis (reference value: 2.92%); type: functional; conditions: dose 8 µmol/L, at 8 µM
[14] = tested on: MGC-803; experiment: Induction of mitochondrial membrane potential depolarization in human MGC-803 assessed as early apoptotic cells measured at 16 micromol/L for 20 mins by JC-1 staining based flow cytometric analysis (reference value: 4.52%); type: functional; conditions: dose 16 µmol/L, at 16 µM
[15] = molecular target: T2, Amine oxidase [flavin-containing] B (Homo sapiens, UniProt P27338); experiment: Inhibition of MAO-B (unknown origin) measured by MAO-GloTM method
T2 sequence (P27338 whole entry): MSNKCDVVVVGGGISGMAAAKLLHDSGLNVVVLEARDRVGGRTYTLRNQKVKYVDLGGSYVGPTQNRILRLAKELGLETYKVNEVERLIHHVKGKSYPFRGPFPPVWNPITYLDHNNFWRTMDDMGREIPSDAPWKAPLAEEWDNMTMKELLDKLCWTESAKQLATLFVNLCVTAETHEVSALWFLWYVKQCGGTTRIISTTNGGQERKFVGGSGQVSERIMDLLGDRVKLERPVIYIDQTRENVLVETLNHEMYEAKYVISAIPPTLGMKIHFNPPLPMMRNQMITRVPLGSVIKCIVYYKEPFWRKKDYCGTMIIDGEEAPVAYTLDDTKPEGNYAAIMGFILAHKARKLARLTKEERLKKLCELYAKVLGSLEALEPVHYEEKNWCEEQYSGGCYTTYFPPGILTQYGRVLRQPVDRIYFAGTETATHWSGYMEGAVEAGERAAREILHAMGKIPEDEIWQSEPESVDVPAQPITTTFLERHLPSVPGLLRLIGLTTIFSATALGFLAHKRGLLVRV

[16] = molecular target: T3, Amine oxidase [flavin-containing] A (Homo sapiens, UniProt P21397); experiment: Inhibition of MAO-A (unknown origin) measured by MAO-GloTM method
T3 sequence (P21397 whole entry): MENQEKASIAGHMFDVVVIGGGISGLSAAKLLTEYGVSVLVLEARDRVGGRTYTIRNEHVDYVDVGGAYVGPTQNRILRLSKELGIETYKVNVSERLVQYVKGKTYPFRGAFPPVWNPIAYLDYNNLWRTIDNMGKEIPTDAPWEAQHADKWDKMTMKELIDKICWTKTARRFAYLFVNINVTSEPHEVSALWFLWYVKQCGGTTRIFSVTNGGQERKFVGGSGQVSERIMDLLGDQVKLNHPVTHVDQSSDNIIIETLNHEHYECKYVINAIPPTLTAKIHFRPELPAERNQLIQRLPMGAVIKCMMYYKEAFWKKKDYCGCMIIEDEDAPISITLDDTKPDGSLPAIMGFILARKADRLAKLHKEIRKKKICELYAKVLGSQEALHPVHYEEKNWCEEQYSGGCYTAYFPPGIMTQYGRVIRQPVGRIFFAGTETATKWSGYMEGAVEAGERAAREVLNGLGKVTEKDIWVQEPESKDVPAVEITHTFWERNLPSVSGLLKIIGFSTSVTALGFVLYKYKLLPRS

[17] = tested on: MGC-803; experiment: Induction of apoptosis in human MGC-803 cells assessed as viable cells at 8 micromol/L for 48 hrs by annexinV-FITC/PI staining based flow cytometric analysis (reference value: 95.54%); type: functional; conditions: MGC-803, 48 h, dose 8 µmol/L, read-out: Activity
[18] = molecular target: T1, Lysine-specific histone demethylase 1A; experiment: Inhibition of recombinant LSD1 (unknown origin) preincubated for 10 mins in presence of H3K4Me2 measured after 30 mins by measuring fluorescence intensity by fluorescence based microplate reader
[19] = molecular target: T1, Lysine-specific histone demethylase 1A; experiment: Inhibition of LSD1 in human MGC-803 cells assessed as increase in mono methylation of H3K9; type: cell-based; conditions: dose 0-24 µmol/L
[20] = tested on: MGC-803; experiment: Induction of apoptosis in human MGC-803 cells assessed as decrease in anti-apoptotic Bcl-2 expression at 8 to 24 micromol/L; type: functional, cell-based; conditions: dose 8-24 µmol/L
[21] = tested on: MGC-803; experiment: Antiproliferative activity against human MGC-803 cells assessed as reduction in stemness of cells by measuring tumor ball diameter at 0 to 8 uM after 48 hrs using 3D-spheroid assay; type: functional, cell-based; conditions: dose 0-8 µM
[22] = tested on: MGC-803; experiment: Induction of cell differentiation in human MGC-803 cells assessed as increase in CD86 level at 16 micromol/L incubated for 48 hrs by flow cytometric analysis (reference value: 60%); type: functional; conditions: dose 16 µmol/L, at 16 µM

O=C(c1cccc(CN[C@@H]2C[C@H]2c2ccc(F)c(F)c2)c1)N1CCN(c2ccc(Cl)c(Cl)c2)CC1
Activity [1]: 0.32% | inhibition [2]: Dose-Dependent Effect | inhibition [3]: Active | Activity [4]: 0.38% | viability at 24 µM [5]: 1.28% | IC50 [6]: 14300 nM | Activity [7]: Active | Activity [8]: Active | Activity [9]: Active | Activity [10]: 69.38% | inhibition [11]: Active | Activity [12]: Active | Activity [13]: 5.92% | Activity [14]: 17.64% | IC50 [15]: 3820 nM | IC50 [16]: 1230 nM | viability at 8 µM [17]: 91% | IC50 [18]: 25.3 nM | inhibition [19]: Dose-Dependent Effect | Activity [20]: Active | Activity [21]: Active | Activity [22]: 64.32%
